The target in the assay is Estrogen receptor beta (Homo sapiens, UniProt Q92731).

The term EC50 denotes the concentration giving half of the maximal effect.

Chain of Estrogen receptor beta (Q92731 whole entry): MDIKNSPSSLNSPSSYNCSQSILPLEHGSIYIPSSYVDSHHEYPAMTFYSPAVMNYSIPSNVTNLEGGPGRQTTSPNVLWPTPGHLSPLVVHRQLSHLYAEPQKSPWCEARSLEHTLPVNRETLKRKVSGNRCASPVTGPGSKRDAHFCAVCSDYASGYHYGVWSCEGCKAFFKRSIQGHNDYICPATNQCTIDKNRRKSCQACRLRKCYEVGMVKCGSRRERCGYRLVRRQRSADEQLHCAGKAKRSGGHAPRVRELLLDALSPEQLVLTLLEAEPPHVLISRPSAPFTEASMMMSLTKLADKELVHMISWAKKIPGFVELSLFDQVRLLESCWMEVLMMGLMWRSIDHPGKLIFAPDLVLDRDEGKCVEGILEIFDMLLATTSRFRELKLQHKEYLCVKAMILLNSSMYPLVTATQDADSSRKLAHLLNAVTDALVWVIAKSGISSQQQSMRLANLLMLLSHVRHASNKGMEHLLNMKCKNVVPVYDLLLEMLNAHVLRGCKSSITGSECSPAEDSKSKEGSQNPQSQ
Description: Transcriptional potency (EC50) at Human estrogen receptor Beta

As to `N#CC(C#N)(Cc1ccc(O)cc1)c1ccc(O)cc1`, the EC50 came out at 21 nM. Then `Oc1ccc(CC(c2ccc(O)cc2)C(F)(F)F)cc1` (stereo not given), with 2 nM.

`O=C(C(Cc1ccc(O)cc1)c1ccc(O)cc1)C(F)(F)F` (stereo not given): the EC50 was determined as 160 nM. For the compound `CC(C#N)(Cc1ccc(O)cc1)c1ccc(O)cc1` (stereo not given), the EC50 worked out at 8 nM.

The compound `N#CC[C@H](Cc1ccc(O)cc1)c1ccc(O)cc1` gave an EC50 of 30 nM. Compound `C[C@H](c1ccc(O)cc1)[C@@H](C#N)c1ccc(O)cc1` returned an EC50 of 0.14 nM. The same measure for `Cc1cc(O)ccc1C(C#N)Cc1ccc(O)cc1` (stereo not given): 1.7 nM. `CC(=O)C(Cc1ccc(O)cc1)c1ccc(O)cc1` (stereo not given) displayed an EC50 of 35 nM. Take `Cc1cc(O)ccc1CC(C#N)c1ccc(O)cc1` (stereo not given): the response was half-maximal at 0.37 nM (EC50).

As for `CC[C@H](c1ccc(O)cc1)[C@@H](C#N)c1ccc(O)cc1`, the EC50 is 0.15 nM. As to `CC#CC(Cc1ccc(O)cc1)c1ccc(O)cc1` (stereo not given), the EC50 was found to be 2.1 nM. The same measure for `N#CC(c1ccc(O)cc1)C(C#N)c1cccc(O)c1` (stereo not given): 110 nM; for `N#C/C(=C/c1ccc(O)cc1)c1ccc(O)cc1`: 220 nM; for `N#C/C(=C\c1ccc(O)cc1)c1ccc(O)cc1`: 140 nM.

The compound `C#CC(Cc1ccc(O)cc1)c1ccc(O)cc1` (stereo not given) gave a concentration for a half-maximal effect (EC50) of 1.4 nM. The same measure for `COC(=O)C(Cc1ccc(O)cc1)c1ccc(O)cc1` (stereo not given): 4.9 nM; for `Oc1ccc(CC(c2ccc(O)cc2)C(F)(F)C(F)(F)F)cc1` (stereo not given): 15 nM. `C#CC(c1ccc(O)cc1)C(C#C)c1ccc(O)cc1` (racemic): the EC50 worked out at 3.7 nM. The same measure for `N#CC(c1ccc(O)cc1)C(C#N)c1ccc(O)cc1` (stereo in doubt): 0.42 nM; for `N#CC(c1ccc(O)cc1)C(C#N)c1ccc(O)cc1` (stereo in doubt; 31a(dl)): 0.41 nM.

The record behind these values is ChEMBL document CHEMBL1134292, “Estrogen receptor-beta potency-selective ligands: structure-activity relationship studies of diarylpropionitriles and their acetylene and polar analogues” (J Med Chem, 2001).
